From ChEMBL document CHEMBL1201862, “PubChem BioAssay data set” (2004)
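Grown in 96-well plates, cells were treated for 48 hours with each compound at five concentrations. Insufficient inhibition: endpoint recorded as highest concentration tested. Abbreviation: GI50, concentration required for 50% inhibition of growth.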 The source made the active and inactive calls. Cut-off read from the data, not from the text of the source: active = GI50 up to about 1.1 µM and inactive = higher.

Experiments:
Assay in all cases: NCI tumour cell line growth inhibition, 48 h
DU-145 = system: DU-145
HCC 2998 = system: HCC 2998
HCT-116 = system: HCT-116
Hs-578T = system: Hs-578T
M14 = system: M14
MDA-MB-231 = system: MDA-MB-231
MOLT-4 = system: MOLT-4
Malme-3M = system: Malme-3M
NCI-H23 = system: NCI-H23
NCI-H460 = system: NCI-H460
NCI-H522 = system: NCI-H522
OVCAR-3 = system: OVCAR-3
OVCAR-4 = system: OVCAR-4
OVCAR-5 = system: OVCAR-5
SF-268 = system: SF-268
SK-OV-3 = system: SK-OV-3
SN12C = system: SN12C
SNB-75 = system: SNB-75
SW-620 = system: SW-620
U-251 = system: U-251

Measured: GI50

CC(C)(C)OC(=O)N1CCC23CCCC2C(=O)CC=C13 (stereo not given)
inactive: DU-145 > 100 µM | HCC 2998 > 100 µM | HCT-116 72.4 µM | Hs-578T > 100 µM | M14 > 100 µM | MDA-MB-231 > 100 µM | MOLT-4 > 100 µM | Malme-3M > 100 µM | NCI-H23 > 100 µM | NCI-H460 > 100 µM | NCI-H522 66.4 µM | OVCAR-3 > 100 µM | OVCAR-4 > 100 µM | OVCAR-5 > 100 µM | SF-268 > 100 µM | SK-OV-3 > 100 µM | SN12C > 100 µM | SNB-75 > 100 µM | SW-620 > 100 µM | U-251 > 100 µM

Cc1cnc2nc(-c3ccc(Cl)cc3)cc(O)c2c1
inactive: DU-145 11.1 µM | HCC 2998 11.4 µM | HCT-116 3.84 µM | Hs-578T 6.7 µM | M14 5.81 µM | MDA-MB-231 5.27 µM | MOLT-4 3.31 µM | Malme-3M 8.61 µM | NCI-H23 29.4 µM | NCI-H460 3.47 µM | NCI-H522 5.47 µM | OVCAR-3 2.95 µM | OVCAR-4 19.1 µM | OVCAR-5 11.1 µM | SF-268 19.7 µM | SK-OV-3 18.4 µM | SN12C 6.31 µM | SNB-75 5.14 µM | SW-620 4.06 µM | U-251 3.9 µM

C=CC/N=C(\S)Nc1sc2c(c1C(=O)OCC)CC(C)CC2 (stereo not given)
inactive: DU-145 30.6 µM | HCC 2998 18.5 µM | HCT-116 24.8 µM | Hs-578T 36.6 µM | M14 24 µM | MDA-MB-231 24.8 µM | MOLT-4 28.8 µM | Malme-3M 21.3 µM | NCI-H23 32.7 µM | NCI-H460 20.8 µM | NCI-H522 20.6 µM | OVCAR-3 20.3 µM | OVCAR-4 35.2 µM | OVCAR-5 30.3 µM | SF-268 35 µM | SK-OV-3 25.4 µM | SN12C 29.9 µM | SNB-75 24.3 µM | SW-620 32.8 µM | U-251 32.6 µM
